Test results as given in US20260109732A1, “LIPID AMINES” (ModernaTX, Inc., priority 2021, published 2026).
Structures can show the parent of a compound that is named as a salt.

Legend:
HeLa cells [1] = test: CFTR Protein Expression Assay in HeLa Cells; assay type: cell-based, Human; details: LNPs encapsulating CFTR mRNA, N=4 wells; 5 h serum-free then 24 h; immunofluorescence vs PBS control
Outline: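 HeLa cells dosed with CFTR mRNA LNPs (70 mM NaCl final buffer matrix) in serum-free MEM for 5 h, then complete MEM for 24 h. Fixed cells immunostained with anti-CFTR monoclonal and Alexa 488 secondary, imaged confocally; CFTR intensity per cell expressed as fold-change versus PBS buffer control, N=4 wells.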

HeLa cells [2] = test: Luciferase Protein Expression Assay in HeLa Cells; assay type: cell-based, Human; details: LNPs encapsulating Luciferase mRNA, 25 ng per well, N=4 wells; 5 h serum-free then 24 h; ONE-Glo
Outline: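 HeLa cells received LNPs carrying luciferase mRNA (25 ng per well) or PBS in serum-free MEM for 5 h, then complete MEM for a further 24 h. Luciferase then read by ONE-Glo luminescence after lysis and reported as average RLU of 4 replicate wells.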

[3] = Diameter and PDI from DLS measurements of mRNA nanoparticles with lipid amines; assay type: physicochemical
Outline: (§1)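 Ionizable lipid nanoparticles (IL1:DSPC:cholesterol:PEG-DMG-2K) formed by vortex mixing at pH 4, loaded with luciferase or CFTR mRNA at N:P 4.93, neutralized with TRIS pH 8.12, then modified with lipid amine SA50 at pH 7.5. Particle diameter and PDI read by DLS; mRNA encapsulation by Ribogreen assay.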

[4] = Encapsulation of mRNA nanoparticles with lipid amines using Ribogreen assay; assay type: physicochemical
Outline: as §1

[5] = CFTR mRNA nanoparticle with lipid amine
[6] = Luciferase mRNA nanoparticle modified with lipid amine

SMILES	Average fold-change in CFTR signal intensity per cell compared to buffer control ± standard deviation (HeLa cells [1]) [fold-change]	Average Relative Light Units ± Standard Deviation (HeLa cells [2]) [Relative Light Units]	Diameter (nm) [3, 5] [nm]	PDI [3, 5]	Diameter (nm) [3, 6] [nm]	PDI [3, 6]	% Encapsulation (Ribogreen) [4, 5] [%]	% Encapsulation (Ribogreen) [4, 6] [%]
CC[C@H](CC[C@@H](C)[C@H]1CC[C@H]2[C@@H]3CC=C4C[C@@H](SSCCC(=O)N(CCCCCCCC(C)(C)N)CCC(C)(C)N)CC[C@]4(C)[C@H]3CC[C@]12C)C(C)C [SA179, N-(3-amino-3-methylbutyl)-N-(8-amino-8-methylnonyl)-3-(((3S,8S,9S,10R,13R,14S,17R)-17-((2R,5R)-5-ethyl-6-methylheptan-2-yl)-10,13-dimethyl-2,3,4,7,8,9,10,11,12,13,14,15,16,17-tetradecahydro-1H-cyclopenta[a]phenanthren-3-yl)disulfaneyl)propanamide dihydrochloride]	7.0 ± 0.6	12298.9 ± 928.6	73	0.15	73	0.17	99.8	99.0
CC[C@H](CC[C@@H](C)[C@H]1CC[C@H]2[C@@H]3CC=C4C[C@@H](OC(=O)CN(CCCN)CCCCNCCCN)CC[C@]4(C)[C@H]3CC[C@]12C)C(C)C [SA119, (3S,8S,9S,10R,13R,14S,17R)-17-((2R,5R)-5-ethyl-6-methylheptan-2-yl)-10,13-dimethyl-2,3,4,7,8,9,10,11,12,13,14,15,16,17-tetradecahydro-1H-cyclopenta[a]phenanthren-3-yl N-(3-aminopropyl)-N-(4-((3-aminopropyl)amino)butyl)glycinate tetrahydrochloride]	5.7 ± 1.0	18979.6 ± 7864.8	88.3	0.15	78	0.18	98.9	99.4
CC[C@H](CC[C@@H](C)[C@H]1CC[C@H]2[C@@H]3CC=C4C[C@@H](SSCCC(=O)N(CCCCCCCC(C)N)CCC(C)N)CC[C@]4(C)[C@H]3CC[C@]12C)C(C)C (stereo partly drawn) [SA178, N-(3-aminobutyl)-N-(8-aminononyl)-3-(((3S,8S,9S,10R,13R,14S,17R)-17-((2R,5R)-5-ethyl-6-methylheptan-2-yl)-10,13-dimethyl-2,3,4,7,8,9,10,11,12,13,14,15,16,17-tetradecahydro-1H-cyclopenta[a]phenanthren-3-yl)disulfaneyl)propanamide dihydrochloride]	9.8 ± 0.3	10196.5 ± 602.4	83	0.26	75	0.20	100	98.8
CC[C@H](CC[C@@H](C)[C@H]1CC[C@H]2[C@@H]3CC=C4C[C@@H](OC(=O)CCC(=O)N(CCCCCCCC(C)(C)N)CCC(C)(C)N)CC[C@]4(C)[C@H]3CC[C@]12C)C(C)C [SA165, (3S,8S,9S,10R,13R,14S,17R)-17-((2R,5R)-5-ethyl-6-methylheptan-2-yl)-10,13-dimethyl-2,3,4,7,8,9,10,11,12,13,14,15,16,17-tetradecahydro-1H-cyclopenta[a]phenanthren-3-yl 4-((3-amino-3-methylbutyl)(8-amino-8-methylnonyl)amino)-4-oxobutanoate dihydrochloride]	14.0 ± 0.5	33585.6 ± 7766.5	69.8	0.12	72	0.13	98.8	98.8
CC[C@H](CC[C@@H](C)[C@H]1CC[C@H]2[C@@H]3CC=C4C[C@@H](OC(=O)CCCC(=O)N(CCCN)CCCCCCCCN)CC[C@]4(C)[C@H]3CC[C@]12C)C(C)C.Cl.Cl [SA135, (3S,8S,9S,10R,13R,14S,17R)-17-((2R,5R)-5-ethyl-6-methylheptan-2-yl)-10,13-dimethyl-2,3,4,7,8,9,10,11,12,13,14,15,16,17-tetradecahydro-1H-cyclopenta[a]phenanthren-3-yl 5-((8-aminooctyl)(3-aminopropyl)amino)-5-oxopentanoate dihydrochloride]	16.6 ± 1.5	27499.8 ± 7269.5	73.5	0.11	71	0.12	98.0	99.3
CC[C@H](CC[C@@H](C)[C@H]1CC[C@H]2[C@@H]3CC=C4C[C@@H](OC(=O)N(CCCC(C)(C)N)CCC(C)(C)N)CC[C@]4(C)[C@H]3CC[C@]12C)C(C)C [SA149, (3S,8S,9S,10R,13R,14S,17R)-17-((2R,5R)-5-ethyl-6-methylheptan-2-yl)-10,13-dimethyl-2,3,4,7,8,9,10,11,12,13,14,15,16,17-tetradecahydro-1H-cyclopenta[a]phenanthren-3-yl (3-amino-3-methylbutyl)(4-amino-4-methylpentyl)carbamate dihydrochloride]	15.8 ± 1.4	31035.2 ± 6333.7	72.3	0.14	75	0.15	99.9	99.5
CC(C)CCC[C@@H](C)[C@H]1CC[C@H]2[C@@H]3CC=C4C[C@@H](OC(=O)N(CCCCNCC(O)CN)CC(O)CN)CC[C@]4(C)[C@H]3CC[C@]12C (stereo partly drawn) [SA88, (3S,8S,9S,10R,13R,14S,17R)-10,13-dimethyl-17-((R)-6-methylheptan-2-yl)-2,3,4,7,8,9,10,11,12,13,14,15,16,17-tetradecahydro-1H-cyclopenta[a]phenanthren-3-yl (3-amino-2-hydroxypropyl)(4-((3-amino-2-hydroxypropyl)amino)butyl)carbamate trihydrochloride]	4.5 ± 0.2	17105.3 ± 7097.3	89.4	0.19	75	0.13	99.1	99.8
C/C(=C/CCC(C)C)[C@H]1CC[C@H]2[C@@H]3CC=C4C[C@@H](OC(=O)N(CCCN)CCCCNCCCN)CC[C@]4(C)[C@H]3CC[C@]12C [SA70, (3S,8S,9S,10R,13R,14S,17R)-10,13-dimethyl-17-((R)-6-methylheptan-2-yl)-2,3,4,7,8,9,10,11,12,13,14,15,16,17-tetradecahydro-1H-cyclopenta[a]phenanthren-3-yl (3-aminopropyl)(4-((3-aminopropyl)amino)butyl)carbamate analog olefin elimination by-product from hydroxycholesterol]	4.5 ± 0.8	11822.1 ± 4128.6	76.2	0.16	76	0.21	99.8	97.9
CC[C@H](CC[C@@H](C)[C@H]1CC[C@H]2[C@@H]3CC=C4C[C@@H](OC(=O)N(CCCCCCCC(C)N)CCC(C)N)CC[C@]4(C)[C@H]3CC[C@]12C)C(C)C (stereo partly drawn) [SA144, (3S,8S,9S,10R,13R,14S,17R)-17-((2R,5R)-5-ethyl-6-methylheptan-2-yl)-10,13-dimethyl-2,3,4,7,8,9,10,11,12,13,14,15,16,17-tetradecahydro-1H-cyclopenta[a]phenanthren-3-yl (3-aminobutyl)(8-aminononyl)carbamate dihydrochloride]	17.9 ± 2.1	33357.5 ± 5288.8	69.3	0.12	71	0.15	98.8	99.2
